This note sets out measurements from a melting point compilation (Tetko et al.).

By melting point is commonly meant the temperature of the solid-liquid transition.

Some results are limits rather than exact numbers.

`CCCCCCCCCCCCc1cc(-c2c(Cl)c(Cl)c(-c3cc(CCCCCCCCCCCC)c(Br)s3)c3nsnc23)sc1Br` registered a melting point of 60 to 61 °C. Molecule `FC(F)(F)c1ccc(Cl)nc1Cl` came in with a melting point of 6 °C. The same measure for `CCC(Cc1c(I)cc(I)c(NC(=O)CN2CCN(CC(=O)O)CCN(CC(=O)O)CCN(CC(=O)O)CC2)c1I)C(=O)O` (configuration not stated): 230 °C; for `CCO[Si](CCCCOc1ccc(S(=O)(=O)c2ccc(OCCCC[Si](OCC)(OCC)OCC)cc2Cc2ccc(C(F)(F)F)cc2)c(Cc2ccc(C(F)(F)F)cc2)c1)(OCC)OCC`: 124 to 128 °C; for `COc1cccc(-c2cc3ncnc(Nc4ccc5[nH]ccc5c4)c3s2)c1`: 160 to 168 °C. The same measure for `CCCCCCCCCCCCCCCCCCCCCC(=O)OCCN(CCOC(=O)CCCCCCCCCCCCCCCCCCCCC)CC(=O)O`: 73 to 75 °C; for `CCC(COC(=O)CCc1cc(C(C)(C)C)c(O)c(C(C)(C)C)c1)(COC(=O)CCc1cc(C(C)(C)C)c(O)c(C(C)(C)C)c1)COC(=O)CCc1cc(C(C)(C)C)c(O)c(C(C)(C)C)c1`: 66 to 79 °C. The same measure for `CC(C)[C@H](NC(=O)N(C)Cc1nccs1)C(=O)N[C@@H](Cc1ccccc1)[C@@H](O)[C@H](O)[C@H](Cc1ccccc1)NC(=O)[C@@H](NC(=O)N(C)Cc1nccs1)C(C)C`: 176 to 178 °C. Molecule `CCCCCCC1(CCCCCC)c2cc(Br)ccc2-c2ccc(-c3ccc(-c4ccc5c(c4)C(CCCCCC)(CCCCCC)c4cc(Br)ccc4-5)c4snnc34)cc21` came in with a melting point of 188 to 190 °C. In turn, `O=CCCCCCCOc1ccc(OCc2ccccc2)cc1` returned a melting point of 65 to 67 °C. The same measure for `C=CC(=O)OCCCCCCCCCCCOc1ccc(-c2nc(-c3ccccc3)nc(-c3ccc(OCCCCCCCCCCCOC(=O)C=C)cc3O)n2)c(O)c1`: 93.3 °C; for `COC(=O)COc1ccccc1`: 85 to 89 °C. The same measure for `COC(=O)[C@H](CC(C)C)NC(=O)CNC(=O)[C@H](Cc1ccc(O)cc1)NC(=O)[C@H](CO)NC(=O)[C@H](Cc1c[nH]c2ccccc12)NC(=O)[C@H](Cc1c[nH]cn1)NC(=O)[C@@H]1CCC(=O)N1`: 213 to 215 °C; for `CCCCC(CC)CN1C(=O)C(=c2[nH]c(=c3[nH]c(=C4C(=O)N(CC(CC)CCCC)C(=O)N(CC(CC)CCCC)C4=O)c4ccccc34)c3ccccc23)C(=O)N(CC(CC)CCCC)C1=O` (configuration not stated): 198 to 206 °C. Then `COc1cccc2c1CC[C@@H](C(=O)O)C2`, with 150 to 152 °C.

In turn, `CCCCCCCCCCCCSc1cc(SCCCCCCCCCCCC)c2ccc3c(SCCCCCCCCCCCC)cc(SCCCCCCCCCCCC)c4ccc1c2c43` came in with a melting point of 110 °C. As to `CCCCCCCCCCCCS(=O)(=O)c1c(S(=O)(=O)CCCCCCCCCCCC)c(S(=O)(=O)CCCCCCCCCCCC)c(S(=O)(=O)CCCCCCCCCCCC)c(S(=O)(=O)CCCCCCCCCCCC)c1S(=O)(=O)CCCCCCCCCCCC`, the melting point stood at 60 °C. With `CCCCCCCCN=C(O)c1c(Sc2ccc([N+](=O)[O-])cc2)c(Sc2ccc([N+](=O)[O-])cc2)c(Sc2ccc([N+](=O)[O-])cc2)c(Sc2ccc([N+](=O)[O-])cc2)c1C(=O)O`, the melting point lay within 202 to 204 °C. Then `CCn1cc(C(=O)Nc2cc(Oc3ccc4nc(NC(=O)C5CC5)cn4n3)ccc2Cl)c(C)n1`, with 200 °C; and `COc1ccc(C(=O)c2ccc(OCc3nc(-c4ccccc4)oc3C)cc2)c(O)c1`, with 156 to 157 °C; and `CC(=O)Nc1c(I)c(C(=O)N(C)CC(O)C(O)C(O)C(O)CO)c(I)c(N(C)C(C)=O)c1I` (configuration not stated), with 110 to 130 °C. Turning to `Cc1cc(C)c(N2c3ccccc3S(=O)(=O)c3cc(C=Cc4ccc(-c5ccc(C=Cc6ccc7c(c6)S(=O)(=O)c6ccccc6N7c6c(C)cc(C)cc6C)cc5)cc4)ccc32)c(C)c1`, the melting point is over 350 °C.

`N=C(NC(=O)OCc1ccccc1)N(CCCC(NC(=O)C(Cc1ccccc1)NC(=O)OCc1ccccc1)C(=O)Oc1cccc2ccccc12)C(=O)OCc1ccccc1` (configuration not stated) yielded a melting point of 125 to 130 °C. The same measure for `CCCCCCCCCCCCCCOc1ccc(N(CC(=O)OCc2ccccc2)CC(=O)OCc2ccccc2)cc1OCCCCCCCCCCCCCC`: 52 °C; for `CCCCCCCCCCCS(=O)(=O)c1cc2c3cc(S(=O)(=O)CCCCCCCCCCC)c(S(=O)(=O)CCCCCCCCCCC)cc3c3cc(S(=O)(=O)CCCCCCCCCCC)c(S(=O)(=O)CCCCCCCCCCC)cc3c2cc1S(=O)(=O)CCCCCCCCCCC`: 179 to 180 °C; for `COc1cc(C(=O)O)ccc1Cc1cn(C(C)=O)c2ccc(NC(=O)CC3CCCC3)cc12`: 245 to 247 °C. `CCCCCCCCOc1ccc(NS(=O)(=O)c2cc(C(C)(C)CC(C)(C)C)ccc2OCCCCCCCC)cc1S(=O)(=O)NCC(C)c1nn2nc(C)c(Cl)c2[nH]1` (configuration not stated) returned a melting point of 129 to 131 °C.

In the case of `COc1cc(OC)c(/C=C/C(c2ccc(OC)c(NC(=O)C(C)(C)OC(C)=O)c2)S(=O)(=O)C(/C=C/c2c(OC)cc(OC)cc2OC)c2ccc(OC)c(NC(=O)C(C)(C)OC(C)=O)c2)c(OC)c1` (configuration not stated), the melting point was 148 to 150 °C. Consider `CC[C@H](C)CNC(=O)[C@@H](C[C@H](O)[C@H](CC1CCCCC1)NC(=O)[C@H](Cc1cscn1)NC(=O)[C@H](Cc1cccc2ccccc12)NC(=O)CN1CCOCC1)C(C)(C)O`, for which the melting point is 141 to 143 °C. The same measure for `OCCOc1ccc(-c2ccc(OCCO)cc2)cc1`: 201 to 202 °C. Then `Cc1ccc2cccc(OCc3c(Cl)ccc(S(=O)(=O)N4CCC[C@H]4C(=O)NC4CCN(C(=O)CCN(C=NC(=O)OC(C)(C)C)NC(=O)OC(C)(C)C)CC4)c3Cl)c2n1`, with 112 °C; and `COc1c(Oc2nc3ccccc3o2)c(C)c(C)n(Cc2ccccc2)c1=O`, with 197 to 198 °C. `N=C(Nc1ccc2[nH]cc(C3=CCN4CCCC4C3)c2c1)c1cccs1` (configuration not stated) came in with a melting point of 122 to 124 °C. Consider `CC(=O)OC12COC1CC(O)C1(C)C(=O)C(O)C3=C(C)C(OC(=O)C(O)C(NC(=O)OC(C)(C)C)c4ccccc4)CC(O)(C(OC(=O)c4ccccc4)C21)C3(C)C` (configuration not stated), for which the melting point lay in the range of 196 to 203 °C.

As to `C=CC(=O)OCCCCCCOc1ccc(C(=O)Oc2ccc(OC(=O)c3ccc(OCCCCCCOC(=O)C=C)cc3)c(C(=O)OCCCCCCCCOc3ccc(C#N)cc3)c2)cc1`, the melting point was found to be 54.5 °C. Then `CCCCC(CC)COc1cc2c3cc(OCC(CC)CCCC)c(OCC(CC)CCCC)cc3c3c(OC)ccc(OC)c3c2cc1OCC(CC)CCCC` (configuration not stated), with 54 to 56 °C. With `CCCCCCCCCCCCc1cc2c(cc1CCCCCCCCCCCC)C(=O)c1c(c(O)c3cc(CCCCCCCCCCCC)c(CCCCCCCCCCCC)cc3c1O)C2=O`, the melting point was in the range of 66 to 76 °C. Then `O=S(=O)(Oc1ccc2c(OS(=O)(=O)c3ccc(OCc4ccccc4)cc3)c3cc(OS(=O)(=O)c4ccc(OCc5ccccc5)cc4)ccc3cc2c1)c1ccc(OCc2ccccc2)cc1`, with 164 to 166 °C; and `CC(=O)OCC(CNC(=O)c1c(I)c(C(=O)NCC(COC(C)=O)OC(C)=O)c(I)c(N2C(=O)COCC2COC(C)=O)c1I)OC(C)=O` (configuration not stated), with 210 to 212 °C. As to `NC(=O)c1cnn(-c2ncc(C(F)(F)F)cc2Cl)c1NC(=O)C1(F)CC1`, the melting point is 204 °C.

Take `CC(=O)OCC(CN(CC(COC(C)=O)OC(C)=O)C(=O)c1c(I)c(NC(=O)C2CCCO2)c(I)c(C(N)=O)c1I)OC(C)=O` (configuration not stated): the melting point lay within 101 to 104 °C. Then `CCCCCCCCCCCCCC(=O)Nc1ccc(Cl)c(NC2=NN(c3c(Cl)cc(Cl)cc3Cl)C(=O)C2SCCCCOc2cccc(C)c2)c1` (configuration not stated), with 123 to 124 °C; and `CC(=O)c1ccc(-n2c(-c3sc(Nc4ccc(Cl)cc4)nc3C)nc3ccccc3c2=O)cc1`, with 209 to 210 °C.

Turning to `CCCc1c(CC[Si](Cl)(Cl)Cl)c(CC[Si](Cl)(Cl)Cl)c(CC[Si](Cl)(Cl)Cl)c(CC[Si](Cl)(Cl)Cl)c1CC[Si](Cl)(Cl)Cl`, the melting point fell in the range of 211 to 216 °C. Then `COc1ccc(-c2cc(C(=O)NCCCCCCc3ccccc3)cc(-c3cccc(C(F)(F)F)c3)c2OCC(=O)O)cc1`, with 153 to 159 °C; and `Cc1cc(Cc2ccc(O)c(C(c3cc(C)c(O)cc3C)c3cc(C)c(O)cc3C)c2)c(O)c(Cc2ccc(O)c(C(c3cc(C)c(O)cc3C)c3cc(C)c(O)cc3C)c2)c1`, with 276 °C; and `CS(C)(=O)=NC(=O)c1cc(Oc2ccc(C(F)(F)F)cc2Cl)ccc1Cl`, with 128 to 131 °C. Then `CC(=O)OCC1OC(NC(=O)C2=CC=C(Cl)C(N)([N+](=O)[O-])C2)C(OC(C)=O)C(OC(C)=O)C1OC1OC(COC(C)=O)C(OC(C)=O)C(OC(C)=O)C1OC(C)=O` (configuration not stated), with 115 to 119 °C; and `CCOC1OC(CO)C(OC2OC(COC(C)=O)C(OC3OC(COC(C)=O)C(OC(C)=O)C(OC(C)=O)C3OC(C)=O)C(OC(C)=O)C2OC(C)=O)C(O)C1NC(C)=O` (configuration not stated), with 260 to 262 °C; and `Cc1ccc(C(c2ccc(C)c(C(OS(C)(=O)=O)(C(F)(F)F)C(F)(F)F)c2)(C(F)(F)F)C(F)(F)F)cc1C(OS(C)(=O)=O)(C(F)(F)F)C(F)(F)F`, with 135 °C. The same measure for `CCCCCCCC/C=C\CCCCCCCCN`: 15 to 22 °C; for `Brc1c(Br)c(Br)c(Oc2nc(Oc3c(Br)c(Br)c(Br)c(Br)c3Br)nc(Oc3c(Br)c(Br)c(Br)c(Br)c3Br)n2)c(Br)c1Br`: 320 to 325 °C; for `Nc1cc(C(F)(F)C(F)(F)OC(F)(F)C(F)(F)OC(F)(F)C(F)(F)OC(F)(F)C(F)(F)C(F)(F)C(F)(F)C(F)(F)OC(F)(F)C(F)(F)c2ccc(O)c(N)c2)ccc1O`: 92 to 95 °C. `CCN(CC)CCN=S(=O)(c1cccs1)c1cccs1` registered a melting point of 131 °C. In the case of `COc1ccccc1C(=C/C=C/C(=O)O)c1ccccc1OC`, the melting point is 196 to 197 °C.

As to `CC(C)[Si](OC(=O)Cc1cc(I)c(Oc2cc(I)c(OCC3CO3)c(I)c2)c(I)c1)(C(C)C)C(C)C` (configuration not stated), the melting point worked out at 120 °C. The same measure for `CCCCCCCCCCCCCCCCCCOc1cc(OCCCOc2ccccc2)cc(N(CC(=O)OCc2ccccc2)CC(=O)OCc2ccccc2)c1`: 59 to 61 °C.
